Entries after “also recorded” stand apart in the source; their conditions may differ. Each block holds one molecule with its values, some of them ahead of it.
Assays:
p75NTR [1] = target: T1, p75NTR (Rattus norvegicus, UniProt P07174); assay: Intermittent access to 20% alcohol 2BC (IA20%-2BC) binge drinking after intra-DLS infusion of LM11A-31; format: in vivo; settings: intra-DLS LM11A-31 30 μg/1 μl per side, vs vehicle
T1 construct: from tissue; host or cells: dorsolateral striatum (DLS) of living rats
T1 sequence (P07174 30-425): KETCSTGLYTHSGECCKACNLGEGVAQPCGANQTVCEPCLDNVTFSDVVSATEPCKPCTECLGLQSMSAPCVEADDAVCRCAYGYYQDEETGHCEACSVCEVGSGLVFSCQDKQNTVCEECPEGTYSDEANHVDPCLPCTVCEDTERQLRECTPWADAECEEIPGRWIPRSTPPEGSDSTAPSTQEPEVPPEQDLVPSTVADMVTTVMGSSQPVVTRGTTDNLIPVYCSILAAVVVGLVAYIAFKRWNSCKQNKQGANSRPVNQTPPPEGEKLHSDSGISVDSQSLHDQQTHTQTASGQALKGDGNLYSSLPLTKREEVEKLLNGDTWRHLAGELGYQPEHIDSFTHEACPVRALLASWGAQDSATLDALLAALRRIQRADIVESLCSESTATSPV
Procedure: (§1) At 8 weeks of age, animals were given 24 hours of access to one bottle of 20% alcohol (v/v) and one bottle of tap water concurrently for a total of 21 sessions of 24 hours during a period of 7 weeks. Drinking sessions started at 12:00 P.M. on Monday, Wednesday, and Friday, with 24 or 48 hours (weekend) of alcohol deprivation between the drinking sessions. The water and alcohol bottles were weighed before the beginning of each drinking session, immediately after the first 30 minutes of access to alcohol and at the end of the session. Rats with escalation of alcohol consumption from session 1 to session 18, reaching a baseline of drinking that was higher than 3.5 g/kg/24 h, were selected for the studies.
(§2) Cannula implantation and microinfusions of BDNF and LM11A-31. Four holes were drilled for screws, and two holes were drilled for cannulae implantation (single cannula, C315GA; PlasticsOne). The coordinates for the DLS were +1.2 mm anterior to Bregma and 3.5 mm lateral to the medial suture. The cannulae were implanted into the lateral part of the dorsal striatum (−4.2 mm from the skull surface) and fixed with dental cement. After 1 week of recovery, the alcohol-drinking procedure resumed, and subjects were habituated to the microinjection procedure with two sham injections (injectors were lowered but no infusion took place). […]

p75NTR [2] = target: T1, p75NTR; assay: Intermittent access to 1% sucrose 2BC after intra-DLS administration of LM11A-31; format: in vivo; settings: intra-DLS LM11A-31 30 μg/μl; IA-2BC 1% sucrose, 30 min; vs vehicle
Procedure: (§3) The procedure was similar to the IA20%-2BC paradigm described above, except that a sucrose (1%) solution was substituted for alcohol. Rats were tested for sucrose intake in response to intra-DLS administration of LM11A-31 or vehicle 1 week after the conclusion of the alcohol-drinking study. Animals were trained to drink sucrose for 2 weeks before the test day. An independent cohort of rats underwent IA-2BC sucrose-drinking paradigm for 7 weeks before systemic administration of LM11A-31.
as §2, with “place). The experimental microinfusions began after each rat reacquired a stable level of drinking. BDNF, LM11A-31, or PBS was infused via a 25 μl Hamilton syringe (#1702), 3 h (BDNF) or 2 h (LM11A-31) before the beginning of the alcohol-drinking session.” for “place).”

p75NTR [3] = target: T1, p75NTR; assay: IA20%-2BC binge drinking after systemic (intraperitoneal) administration of LM11A-31; format: in vivo; settings: 30 min
Procedure: as §1
Before the beginning of experiments, rats were habituated for 3 days to intraperitoneal administration by daily injections of saline (0.9% NaCl). LM11A-31 (50-150 mg/kg) or vehicle (0.9% saline) was administered intraperitoneally 2 hours before the beginning of the drinking session. Test days occurred once a week, with two alcohol-drinking sessions without treatment that were performed between injections to allow intake to return to baseline. For the highest dose of LM11A-31, vehicle and drug were tested in different animals. […]

p75NTR [4] = target: T1, p75NTR; assay: IA-2BC 1% sucrose drinking after systemic administration of LM11A-31; format: in vivo; settings: LM11A-31 150 mg/kg systemic; IA 1% sucrose 2BC 7 weeks; 30 min access
Procedure: as §3
Before the beginning of experiments, rats were habituated for 3 days to intraperitoneal administration by daily injections of saline (0.9% NaCl). LM11A-31 (50-150 mg/kg) or vehicle (0.9% saline) was administered intraperitoneally 2 hours before the beginning of the drinking session. Test days occurred once a week, with two alcohol-drinking sessions without treatment that were performed between injections to allow intake to return to baseline. For the highest dose of LM11A-31, vehicle and drug were tested in different animals.
To test whether systemic administration of LM11A-31 attenuates binge drinking of sucrose, rats had IA to 1% sucrose in a 2BC paradigm for 7 weeks, and sucrose consumption was measured after 30 min access following LM11A-31 injection.

p75NTR [5] = target: T2, p75NTR (Homo sapiens, UniProt P08138); settings: Massa et al., 2006; Longo and Massa, 2013; cited from earlier work
T2 sequence (P08138 29-427): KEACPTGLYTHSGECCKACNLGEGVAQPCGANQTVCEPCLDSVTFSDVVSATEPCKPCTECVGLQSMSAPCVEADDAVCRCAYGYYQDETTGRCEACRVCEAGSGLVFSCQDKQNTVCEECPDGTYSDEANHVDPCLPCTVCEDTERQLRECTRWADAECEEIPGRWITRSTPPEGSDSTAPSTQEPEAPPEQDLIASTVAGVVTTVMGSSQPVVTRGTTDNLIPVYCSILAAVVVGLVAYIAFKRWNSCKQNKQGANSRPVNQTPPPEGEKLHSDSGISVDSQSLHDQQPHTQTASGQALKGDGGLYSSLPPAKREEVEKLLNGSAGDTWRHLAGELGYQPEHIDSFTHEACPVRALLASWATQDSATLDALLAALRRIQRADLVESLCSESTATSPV

[6] = tested on: p75NTR-mediated neuronal death; settings: Knowles et al., 2013, Tep et al.; cited from earlier work
Jun kinase = settings: Shi et al., 2013; cited from earlier work
[7] = tested on: rats with a history of excessive alcohol drinking; assay: Operant self-administration of alcohol after intra-DLS administration of BDNF; format: in vivo, rat; settings: intra-DLS BDNF 0.75 μg/side 3 hours before operant session; 2.5, 10 and 20% alcohol; rats after 5 weeks IA20%-2BC; vs vehicle (PBS)
Procedure: After 5 weeks of the intermittent access (IA) to 20% alcohol 2BC paradigm (IA20%-2BC), the rats were trained to self-administer alcohol. […] Rats were trained under a fixed ratio 3 schedule; i.e., rats had to press three times to receive one reward. Sessions lasted for the duration of 1 h at the beginning of the training and 30 min after the first 2 weeks. The number of presses on the levers and the number of alcohol deliveries were recorded using MED-PC IV software (Med-Associates).
as §2, with “cement.” for “cement. After 1 week of recovery, the alcohol-drinking procedure resumed, and subjects were habituated to the microinjection procedure with two sham injections (injectors were lowered but no infusion took place).”
To test the possibility that BDNF signaling in the DLS is disrupted after chronic excessive alcohol drinking, the ability of the neurotrophic factor to control alcohol self-administration in rats with a history of excessive alcohol drinking was tested. […] The self-administration of three alcohol concentrations was measured. […]

[8] = tested on: rats with history of moderate (10%) alcohol drinking; settings: exogenous BDNF into the DLS, shown previously; cited from earlier work

- binge-like alcohol intake (p75NTR [1]; 2 h before 30 min alcohol binge-drinking session): significantly reduced
- concurrent water intake (p75NTR [1]; 2 h before 30 min alcohol session): without changing
- sucrose intake (p75NTR [2]): unaltered
- binge drinking of alcohol (p75NTR [3]; LM11A-31 150 mg/kg intraperitoneally 2 hours before session, IA20%-2BC 7 weeks, vs vehicle): significantly attenuated
- water intake (p75NTR [3]; LM11A-31 50-150 mg/kg intraperitoneally 2 hours before session, IA20%-2BC): without altering
- binge consumption of sucrose (p75NTR [4]): did not alter
- corresponding water intake (p75NTR [4]): unaltered
Molecule: CC[C@H](C)[C@H](N)C(=O)NCCN1CCOCC1 [LM11A-31, Tris[(2S,3S)-2-amino-3-methyl-N-(2-morpholinoethyl)pentanamide]tetra(monohydrogensulfate), monosulfate]
- binding between p75NTR and neurotrophins, including BDNF (p75NTR [5]): disrupting the binding
- p75NTR-mediated neuronal death [6]: blocks
- phosphorylation of Jun kinase (Jun kinase): decreases

B1: BDNF: Brain-derived neurotrophic factor; Human BDNF was purchased from Sigma-Aldrich (protein, UniProt P23560 19-247, looked up)
Neurotrophic factor BDNF …: APMKEANIRGQGGLAYPGVRTHGTLESVNGPKAGSRGLTSLADTFEHVIEELLDEDQKVRPNEENNKDADLYTSRVMLSSQVPLEPPLLFLLEEYKNYLDAANMSMRVRRHSDPARRGELSVCDSISEWVTAADKKTAVDMSGGTVTVLEKVPVSKGQLKQYFYETKCNPMGYTKEGCRGIDKRHWNSQCRTTQSYVRALTMDSKKRIGWRFIRIDTSCVCTLTIKRGR
- amount of alcohol consumed [7]: does not decrease; also recorded: did not decrease
- number of alcohol deliveries [7]: does not decrease; also recorded: did not decrease
- operant alcohol self-administration [8]: reduces

Source: US20190231787A1, “METHODS AND COMPOUNDS FOR TREATING ALCOHOL USE DISORDERS AND ASSOCIATED DISEASES” (PHARMATROPHIX, INC., priority 2016, published 2019)
